Assay type in all cases: biochemical
The target in one assay is T1, Recombinant human TRKA (Homo sapiens, UniProt P04629).
T1 construct: purchased Carna Biosciences
The assay can be described thus: In vitro activity test on TRKA kinase (HTRF KinEASE TK). The conditions noted are these: 14.68 μM ATP, 40 min. On the procedure: (§1) Biological Test Example 1 In Vitro Activity Test on TRKA, TRKB, TRKC Kinase
(§2) Recombinant human TRKA, TRKB, TRKC proteins were purchased from Carna Biosciences. HTRF KinEASE TK kit was purchased from Cisbio Bioassays. Synergy Neo 2 of Biotek was used to read the plate.
(§3) The tested compound was subjected to 3-fold serial dilution to reach a final concentration of 1 μM to 0.05 nM (10 concentrations), duplicates for each concentration; and the DMSO concentration in the detection reaction was 1%.
0.2 ng/μL TRKA protein kinase, 1 μM TK Substrate-biotin polypeptide substrate, 14.68 μM ATP, 1× enzymatic buffer, 5 mM MgCl2, and 1 mM DTT. The detection plate was White Proxiplate384-Plus plate (PerkinElmer), and incubated at room temperature for 40 min, and the assay volume was 10 μL.
(§4) 10 μL of detection reagent was added to the plate (containing 0.125 μM SA-XL665 and 5 μL 1×TK-Antibody) and incubated overnight at room temperature, and Synergy Neo 2 was used to read the plate.
(§5) The 665/620 Ratio was converted according to the following formula into inhibition rate (%)=(1−Ratiotest/Ratiomax)×100%. Ratiomax was a positive control without tested compound, and Ratiotest was the value of each concentration of different compounds. IC50 (nM) data was obtained by 4 parameter curve fitting (see Table 1).
In general terms: In TR-FRET formats the signal depends on donor and acceptor labels being close together.

The next assay deals with T2, Recombinant human TRKB (Homo sapiens, UniProt Q16620).
T2 construct: purchased Carna Biosciences
The assay can be described thus: In vitro activity test on TRKB kinase (HTRF KinEASE TK). The conditions noted are these: 4.77 μM ATP, 50 min. On the procedure: as §1, §2, §3
0.037 ng/μL TRKB protein kinase, 1 μM TK Substrate-biotin polypeptide substrate, 4.77 μM ATP, 1× enzymatic buffer, 5 mM MgCl2, and 1 mM DTT. The detection plate was White Proxiplate 384-Plus plate (PerkinElmer), and incubated at room temperature for 50 min, and the assay volume was 10 μL.
as §4, §5

The next assay has as its target T3, Recombinant human TRKC (Homo sapiens, UniProt Q16288).
T3 construct: purchased Carna Biosciences
The assay can be described thus: In vitro activity test on TRKC kinase (HTRF KinEASE TK). Conditions: 25.64 μM ATP, 40 min. On the procedure:
as §1, §2, §3
0.037 ng/μL TRKC protein kinase, 1 μM TK Substrate-biotin polypeptide substrate, 25.64 μM ATP, 1× enzymatic buffer, 5 mM MgCl2, and 1 mM DTT. The detection plate was White Proxiplate 384-Plus plate (PerkinElmer), and incubated at room temperature for 40 min, and the assay volume was 10 μL.
as §4, §5

Assay [1] addresses T4, recombinant human TRKA (G595R) (Homo sapiens, UniProt P04629, G595R).
T4 construct: purchased SignalChem
The assay can be described thus: In vitro activity test on mutant TRKA (G595R) (HTRF KinEASE TK). The conditions noted are these: 4.5 μM ATP, 30 min. On the procedure: (§6) Biological Test Example 2 In Vitro Activity Test on Mutant TRKA (G595R), TRKA (G667C) and TRKC (G623R)
(§7) The recombinant human TRKA (G595R), TRKA (G667C) and TRKC (G623R) proteins were purchased from SignalChem. HTRF kinEASE TK kit was purchased from CisbioBioassays. Synergy Neo 2 of Biotek was used to read the plate.
(§8) The tested compound was subjected to 4-fold serial dilution to reach a final concentration of 1 μM to 0.004 nM (10 concentrates), duplicates for each concentration; and 1% DMSO was present in the detection reaction.
0.12 ng/μL TRKA (G595R) kinase, 1 μM TK Substrate-biotin polypeptide substrate, 4.5 μM ATP, 1× enzymatic buffer, 5 mM MgCl2, and 1 mm DTT. The detection plate was White Proxiplate384-Plus plate (PerkinElmer), and incubated at room temperature for 30 min, and the assay volume was 10 μL.
as §4
(§9) The value of 665/620 Ratio minus the value of negative control wells without enzyme, then the obtained value was converted according to the following formula into inhibition rate (%)=(1−Ratiotest/Ratiomax)×100%. Ratiomax was a positive control without tested compound, and Ratiotest was the value of each concentration of different compounds. IC50 (nM) data was obtained by 4 parameter curve fitting (see Table 1).

The target of assay [2] is T5, recombinant human TRKA (G667C) (Homo sapiens, UniProt P04629, G667C).
T5 construct: purchased SignalChem
The assay can be described thus: In vitro activity test on mutant TRKA (G667C) (HTRF KinEASE TK). The conditions noted are these: 5.5 μM ATP, 30 min. On the procedure: as §6, §7, §8
0.026 ng/μL TRKA (G667C) kinase, 1 μM TK Substrate-biotin polypeptide substrate, 5.5 μm ATP, 1× enzymatic buffer, 5 mM MgCl2, and 1 mM DTT. The detection plate was White Proxiplate 384-Plus plate (PerkinElmer), and incubated at room temperature for 30 min, the assay volume was 10 μL.
as §4, §9

Counter-ions that a name gives are not always drawn.

As a reminder, the IC50 is the point on the concentration scale where inhibition reaches its midpoint.

T5 sequence (P04629 33-796 G667C): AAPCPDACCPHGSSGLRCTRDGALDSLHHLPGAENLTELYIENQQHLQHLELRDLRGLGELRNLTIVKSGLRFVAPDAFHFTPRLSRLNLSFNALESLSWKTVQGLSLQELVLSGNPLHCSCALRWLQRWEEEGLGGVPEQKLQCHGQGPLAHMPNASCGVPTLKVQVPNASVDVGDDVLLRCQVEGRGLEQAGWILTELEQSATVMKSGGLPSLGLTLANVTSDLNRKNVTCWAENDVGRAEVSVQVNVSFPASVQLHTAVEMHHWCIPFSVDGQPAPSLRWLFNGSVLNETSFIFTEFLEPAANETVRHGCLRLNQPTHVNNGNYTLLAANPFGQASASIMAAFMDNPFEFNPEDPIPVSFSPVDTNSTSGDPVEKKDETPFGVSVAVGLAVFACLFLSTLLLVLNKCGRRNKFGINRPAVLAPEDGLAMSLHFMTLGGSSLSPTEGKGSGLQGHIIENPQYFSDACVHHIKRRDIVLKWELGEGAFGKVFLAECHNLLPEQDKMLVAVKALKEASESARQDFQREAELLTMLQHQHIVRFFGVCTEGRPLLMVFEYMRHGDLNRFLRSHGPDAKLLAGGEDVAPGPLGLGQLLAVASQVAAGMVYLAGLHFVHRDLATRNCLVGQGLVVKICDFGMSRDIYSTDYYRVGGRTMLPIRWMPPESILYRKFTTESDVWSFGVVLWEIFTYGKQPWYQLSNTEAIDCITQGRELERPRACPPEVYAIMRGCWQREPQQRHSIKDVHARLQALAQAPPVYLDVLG
T1 sequence (P04629 33-796): as the sequence (P04629 33-796 G667C) above, with C635G counted along it
T2 sequence (Q16620 32-822): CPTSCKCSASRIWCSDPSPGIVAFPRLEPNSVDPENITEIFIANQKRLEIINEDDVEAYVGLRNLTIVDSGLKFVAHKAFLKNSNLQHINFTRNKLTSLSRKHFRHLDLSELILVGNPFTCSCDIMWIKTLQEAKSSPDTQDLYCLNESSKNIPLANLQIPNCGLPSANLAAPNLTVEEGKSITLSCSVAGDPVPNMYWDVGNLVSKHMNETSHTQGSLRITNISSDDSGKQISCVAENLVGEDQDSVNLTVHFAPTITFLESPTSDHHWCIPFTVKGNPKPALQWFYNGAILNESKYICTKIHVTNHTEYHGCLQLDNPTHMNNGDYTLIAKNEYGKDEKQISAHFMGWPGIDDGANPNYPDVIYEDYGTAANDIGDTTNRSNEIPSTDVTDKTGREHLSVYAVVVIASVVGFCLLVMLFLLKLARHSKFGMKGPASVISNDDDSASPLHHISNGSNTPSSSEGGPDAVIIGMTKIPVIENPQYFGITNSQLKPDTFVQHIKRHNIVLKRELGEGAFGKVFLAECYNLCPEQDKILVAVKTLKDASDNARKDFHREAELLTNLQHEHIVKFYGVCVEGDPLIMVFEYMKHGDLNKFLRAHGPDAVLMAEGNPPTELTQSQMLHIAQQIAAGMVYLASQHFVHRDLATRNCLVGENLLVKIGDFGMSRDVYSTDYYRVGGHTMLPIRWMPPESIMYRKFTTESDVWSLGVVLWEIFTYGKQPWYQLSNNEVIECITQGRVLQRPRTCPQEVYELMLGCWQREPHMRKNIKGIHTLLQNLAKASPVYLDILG
T4 sequence (P04629 33-796 G595R): as the sequence (P04629 33-796 G667C) above, with G563R, C635G counted along it
T3 sequence (Q16288 32-839): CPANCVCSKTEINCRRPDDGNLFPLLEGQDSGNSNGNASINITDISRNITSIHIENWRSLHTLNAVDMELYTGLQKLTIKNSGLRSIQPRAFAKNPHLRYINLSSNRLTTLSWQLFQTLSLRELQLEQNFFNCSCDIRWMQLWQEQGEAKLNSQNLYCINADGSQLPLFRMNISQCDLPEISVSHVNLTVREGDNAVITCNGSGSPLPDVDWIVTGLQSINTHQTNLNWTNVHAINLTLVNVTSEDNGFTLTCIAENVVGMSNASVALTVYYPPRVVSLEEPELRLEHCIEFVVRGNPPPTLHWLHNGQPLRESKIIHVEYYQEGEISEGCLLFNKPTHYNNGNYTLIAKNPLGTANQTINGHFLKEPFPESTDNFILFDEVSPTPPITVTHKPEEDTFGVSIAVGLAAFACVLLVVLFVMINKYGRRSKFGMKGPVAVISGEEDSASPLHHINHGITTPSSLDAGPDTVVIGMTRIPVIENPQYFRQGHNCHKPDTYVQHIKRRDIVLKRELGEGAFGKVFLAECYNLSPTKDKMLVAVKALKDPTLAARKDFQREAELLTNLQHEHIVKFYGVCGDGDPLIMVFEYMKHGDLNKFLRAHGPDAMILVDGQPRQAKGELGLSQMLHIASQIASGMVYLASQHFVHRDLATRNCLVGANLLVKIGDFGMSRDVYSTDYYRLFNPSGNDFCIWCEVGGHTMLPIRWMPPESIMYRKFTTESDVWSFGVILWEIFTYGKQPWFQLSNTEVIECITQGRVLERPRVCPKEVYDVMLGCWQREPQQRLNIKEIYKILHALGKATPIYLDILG

Take `Fc1ccc(F)c([C@H]2C[C@H](F)CN2c2ccc3ncnc(-c4cnn(CC5CNC5)c4)c3n2)c1` [Example 59, 4-(1-(azetidin-3-ylmethyl)-1H-pyrazol-4-yl)-6-((2R,4S)-2-(2,5-difluorophenyl)-4-fluoropyrrolidin-1-yl)pyrido[3,2-d]pyrimidine HCOOH salt]: the half-inhibitory concentration (IC50) is < 1 nM on Recombinant human TRKA; < 50 nM at Recombinant human TRKB; < 1 nM on Recombinant human TRKC; < 10 nM in assay [1]; < 10 nM in assay [2].

On to `Fc1ccc(F)c([C@H]2C[C@H](F)CN2c2ccc3ncc(Cl)c(-c4cnc(N5CCOCC5)s4)c3n2)c1` [Example 61, 4-(5-(3-chloro-6-((2R,4S)-2-(2,5-difluorophenyl)-4-fluoropyrrolidin-1-yl)-1,5-naphthyridin-4-yl)thiazol-2-yl)morpholine], for which the IC50 at Recombinant human TRKA is < 10 nM; at Recombinant human TRKB it was < 50 nM; at Recombinant human TRKC, < 10 nM; in assay [1] it was < 50 nM; in assay [2] it was < 10 nM.

For `Fc1ccc(F)c([C@H]2C[C@H](F)CN2c2ccc3ncc(Cl)c(-c4nnc(C5CCNCC5)o4)c3n2)c1` [Example 42, 2-(3-Chloro-6-((2R,4S)-2-(2,5-difluorophenyl)-4-fluoropyrrolidin-1-yl)-1,5-naphthyridin-4-yl)-5-(piperidin-4-yl)-1,3,4-oxadiazole], the IC50 was < 1 nM on Recombinant human TRKA; < 1 nM at Recombinant human TRKB; < 1 nM on Recombinant human TRKC; < 10 nM in assay [1]; < 10 nM in assay [2].

For `CC(C)N1CCC(n2cc(-c3ccnc4ccc(N5C[C@@H](F)C[C@@H]5c5cc(F)ccc5F)nc34)cn2)CC1` [Example 14], the IC50 at Recombinant human TRKA was < 1 nM; at Recombinant human TRKB it was < 10 nM; on Recombinant human TRKC it was < 1 nM; in assay [1], < 1 nM; in assay [2], < 50 nM.

With `CC1(C)CC(n2cc(-c3ccnc4ccc(N5C[C@@H](F)C[C@@H]5c5cc(F)ccc5F)nc34)cn2)CCN1` (stereo partly drawn) [Example 18, 2-((2R,4S)-2-(2,5-difluorophenyl)-4-fluoropyrrolidin-1-yl)-8-(1-(2,2-dimethylpiperidin-4-yl)-1H-pyrazol-4-yl)-1,5-naphthyridine], the IC50 on Recombinant human TRKA was < 1 nM; on Recombinant human TRKB, < 1 nM; on Recombinant human TRKC, < 1 nM; in assay [1], < 10 nM; in assay [2] it was < 10 nM.

As to `O[C@H]1CN=C(Nc2ccnc3ccc(N4C[C@@H](F)C[C@@H]4c4cc(F)ccc4F)nc23)OC1` [Example 99, (S)-2-((6-((2R,4S)-2-(2,5-difluorophenyl)-4-fluoropyrrolidin-1-yl)-1,5-naphthyridin-4-yl)amino)-5,6-dihydro-4H-1,3-oxazin-5-ol], the concentration for half-maximal inhibition (IC50) on Recombinant human TRKA is < 1 nM; at Recombinant human TRKB it was < 1 nM; on Recombinant human TRKC it was < 10 nM; in assay [1], < 1 nM; in assay [2], < 1 nM.

Take `Fc1ccc(F)c([C@H]2CCCN2c2ccc3ncc(Cl)c(-c4cnn(C5CCNCC5)c4)c3n2)c1` [Example 24, (R)-7-chloro-2-(2-(2,5-difluorophenyl)pyrrolidin-1-yl)-8-(1-(piperidin-4-yl)-1H-pyrazol-4-yl)-1,5-naphthyridine]: the IC50 was < 1 nM on Recombinant human TRKA; < 1 nM at Recombinant human TRKB; < 10 nM on Recombinant human TRKC; < 1 nM in assay [1]; < 10 nM in assay [2].

On to `O=S1(=O)CCC(n2cc(-c3c(Cl)cnc4ccc(N5C[C@@H](F)C[C@@H]5c5cc(F)ccc5F)nc34)cn2)CC1` [Example 47, 4-(4-(3-chloro-6-((2R,4S)-2-(2,5-difluorophenyl)-4-fluoropyrrolidin-1-yl)-1,5-naphthyridin-4-yl)-1H-pyrazol-1-yl)tetrahydro-2H-thiopyran 1,1-dioxide], for which the IC50 was < 1 nM at Recombinant human TRKA; < 1 nM at Recombinant human TRKB; < 1 nM at Recombinant human TRKC; < 10 nM in assay [1]; < 1 nM in assay [2].

On to `OC[C@@H](O)CN1CCC(n2cc(-c3c(Cl)cnc4ccc(N5C[C@@H](F)C[C@@H]5c5cc(F)ccc5F)nc34)cn2)CC1` [Example 44, (S)-3-(4-(4-(3-chloro-6-((2R,4S)-2-(2,5-difluorophenyl)-4-fluoropyrrolidin-1-yl)-1,5-naphthyridin-4-yl)-1H-pyrazol-1-yl)piperidin-1-yl)propane-1,2-diol], for which the IC50 at Recombinant human TRKA is < 1 nM; on Recombinant human TRKB, < 1 nM; on Recombinant human TRKC, < 1 nM; in assay [1], < 10 nM; in assay [2] it was < 1 nM.

In the case of `Fc1ccc(F)c([C@H]2C[C@H](F)CN2c2ccc3ncnc(-c4cnn(C5CCNCC5)c4)c3n2)c1` [Example 46], the half-inhibitory concentration (IC50) (on Recombinant human TRKA; at Recombinant human TRKB; on Recombinant human TRKC; in assay [1]; in assay [2]) was < 1 nM throughout.

Take `O[C@H]1CCN(c2ccc(-c3ncnc4ccc(N5C[C@@H](F)C[C@@H]5c5cc(F)ccc5F)nc34)cn2)C1` [Example 75, (S)-1-(5-(6-((2R,4S)-2-(2,5-difluorophenyl)-4-fluoropyrrolidin-1-yl)pyrido[3,2-d]pyrimidin-4-yl)pyridin-2-yl)pyrrolidin-3-ol]: the IC50 at Recombinant human TRKA is < 1 nM; at Recombinant human TRKB it was < 1 nM; at Recombinant human TRKC, < 1 nM; in assay [1], < 1 nM; in assay [2], < 10 nM.

`N#Cc1cnc2ccc(N3C[C@@H](F)C[C@@H]3c3cc(F)ccc3F)nc2c1-c1cnn(C2CCNCC2)c1` [Example 36, 6-((2R,4S)-2-(2,5-difluorophenyl)-4-fluoropyrrolidin-1-yl)-4-(1-(piperidin-4-yl)-1H-pyrazol-4-yl)-1,5-naphthyridin-3-carbonitrile]: the IC50 at Recombinant human TRKA is < 1 nM; at Recombinant human TRKB, < 1 nM; at Recombinant human TRKC it was < 1 nM; in assay [1], < 10 nM; in assay [2], < 10 nM.

With `O[C@H]1CCN(c2ncc(-c3ncnc4ccc(N5C[C@@H](F)C[C@@H]5c5cc(F)ccc5F)nc34)cn2)C1` [Example 72, (S)-1-(5-(6-((2R,4S)-2-(2,5-difluorophenyl)-4-fluoropyrrolidin-1-yl)pyrido[3,2-d]primidin-4-yl)pyrimidin-2-yl)pyrrolidin-3-ol], the IC50 is < 1 nM at Recombinant human TRKA; < 1 nM at Recombinant human TRKB; < 1 nM on Recombinant human TRKC; < 1 nM in assay [1]; < 10 nM in assay [2].

On to `Fc1ccc(F)c([C@H]2C[C@H](F)CN2c2ccc3ncc(Cl)c(-c4cnn([C@@H]5CCCNC5)c4)c3n2)c1` [Example 54, 7-chloro-2-((2R,4S)-2-(2,5-difluorophenyl)-4-fluoropyrrolidin-1-yl)-8-(1-((R)-piperidin-3-yl)-1H-pyrazol-4-yl)-1,5-naphthyridine], for which the IC50 (on Recombinant human TRKA; at Recombinant human TRKB; on Recombinant human TRKC; in assay [1]; in assay [2]) was < 10 nM each time.

As for `O=c1n(-c2ncnc3ccc(N4C[C@@H](F)C[C@@H]4c4cc(F)ccc4F)nc23)ccn1C1CCNCC1` [Example 96, 1-(6-((2R,4S)-2-(2,5-difluorophenyl)-4-fluoropyrrolidin-1-yl)pyrido[3,2-d]pyrimidin-4-yl)-3-(piperidin-4-yl)-1,3-dihydro-2H-imidazol-2-one], the IC50 at Recombinant human TRKA is < 1 nM; at Recombinant human TRKB, < 10 nM; at Recombinant human TRKC, < 10 nM; in assay [1] it was < 10 nM.

(Values after US20220017512A1 (SHANGHAI ENNOVABIO PHARMACEUTICALS CO., LTD., priority 2018, published 2022).)
